Patent US20140179726A1, “GUT MICROFLORA AS BIOMARKERS FOR THE PROGNOSIS OF CIRRHOSIS AND BRAIN DYSFUNCTION” (priority 2011, published 2014)

Key:
[1] = test system: cirrhotic patients with HE; assay: Comparison within the HE group: cognitive battery (PHES, block design, ICT) (Example 1); format: in vivo, human; conditions: HE patients on therapy, mean ± SD
Protocol: All subjects underwent a mini-mental status exam and only those scoring above 25 were included in the full study (11). Participants then underwent a 24-hour dietary recall. Subsequently a recommended cognitive battery consisting of the following tests was administered to the cirrhotic patients; (a) Psychometric hepatic encephalopathy score (PHES), (b) block design test (BDT: subjects are required to replicate standardized designs with given blocks in a timed manner. The score is based on the designs correctly copied) and (c) Inhibitory control test. [This is a 15 minute computerized test. Subjects are instructed to respond to alternating presentations of X and Y on the screen (targets) while inhibiting response when X and Y are not alternating (lures)] (3, 41). The PHES consists of 5 tests: number connection test-A/B (NCT-A/B: subjects are asked to “join the dots” between numbers or numbers and alphabets in a timed fashion and the number of seconds required is the outcome), digit symbol (DST: subjects are required to copy corresponding figures from a given list within 2 minutes and the number correctly copied is the result), line drawing [LDTt (time) and LDTe (errors): subjects are required to trace a line between two parallel lines and balance between speed and accuracy. Time required and the number of times the subject's line strays beyond the marked lines (errors) are recorded] and serial dotting (SDT, subjects are asked to dot the center of a group of blank circles and the time required is the outcome)]. The PHES is a validated battery for cognitive dysfunction in cirrhosis and tests for psychomotor speed, visuo-motor coordination, attention and set-shifting(32). The BDT tests for visuo-motor coordination. The ICT is a validated computerized test of attention, psychomotor speed, response inhibition and working memory. A high score on BDT, DST and ICT targets and a low score on the rest of the tests indicates good cognitive performance. Cirrhotic patients also underwent serum collection for inflammatory cytokines testing for innate immunity [IL-1b, IL-6, TNF-α (tumor necrosis factor-alpha)], Th1 response ([IFN-γ (interferon-gamma) and IL-2], Th2 response (IL-4, IL-10, IL-13], Th17 response (IL-17 and IL-23), and endotoxin. These were analyzed in duplicate by multiplex bead-based sandwich ELISA and LAL assay for endotoxin using published techniques by AssayGate Inc, Ijamsville, Md. (4, 17, 45).
The cirrhosis group was divided into those with and without HE and were compared. Data from the significant variables between HE and non-HE groups were combined in a MANOVA model. Within HE patients, comparison was made between those on lactulose alone to those with lactulose and rifaximin. Microbiome abundance comparisons between groups were made at a family level using non-parametric tests. A comparison was performed between patients on and withdrawn off of lactulose therapy using the Wilcoxon matched-pair signed rank tests. All values are presented as mean±standard deviation unless mentioned otherwise.

stool microbiome = assay: Stool microbiome by multitag pyrosequencing, family level, within HE group (Example 1); format: in vivo, human; set-up: normalized abundance of Streptococcaceae: unit not given here; conditions: HE patients
Protocol: Interrogation of the Microbiome: Stool was collected and DNA extracted for microbiome analysis within 24 hours of collection from patients and controls using published techniques (29). We first routinely use Length Heterogeneity PCR (LH-PCR) fingerprinting of the 16S rRNA to rapidly survey our samples and standardize the community amplification. We then interrogated the microbial taxa associated with the gut fecal microbiome using Multitag Pyrosequencing (MTPS). This technique allows the rapid sequencing of multiple samples at one time yielding thousands of sequence reads per sample (12).
Microbiome Community Fingerprinting: LH-PCR was done to standardize the community analysis as previously published (21). Briefly, total genomic DNA was extracted from tissue using Bio101 kit from MP Biomedicals Inc., Montreal, Quebec as per the manufacturer's instructions. About 10 ng of extracted DNA was amplified by PCR using a fluorescently labeled forward primer 27F (5’-(6FAM) AGAGTTTGATCCTGGCTCA G-3′, SEQ ID NO: 1) and unlabeled reverse primer 355R′ (5′-GCTGCCTCCCGTAGGAGT-3′, SEQ ID NO: 2). Both primers are universal primers for Bacteria (22). The LH-PCR products were diluted according to their intensity on agarose gel electrophoresis and mixed with ILS-600 size standards (Promega) and HiDi Formamide (Applied Biosystems, Foster City, Calif.). The diluted samples were then separated on a ABI 3130x1 fluorescent capillary sequencer (Applied Biosystems, Foster City, Calif.) and processed using the Genemapper™ software package (Applied Biosystems, Foster City, Calif.). Normalized peak areas were calculated using a custom PERL script and OTUs constituting less than 1% of the total community from each sample were eliminated from the analysis to remove the variable low abundance components within the communities.
MTPS: We employed the MTPS process to characterize the microbiome from the fecal samples. Specifically, we have generated a set of 96 emulsion PCR fusion primers that contain the 454 emulsion PCR linkers on the 27F and 355R primers and a different 8 base “barcode” between the A adapter and 27F primer. Thus, each fecal sample was amplified with unique bar-coded forward 16S rRNA primers and then up to 96 samples were pooled and subjected to emulsion PCR and pyrosequenced using a GS-FLX pyrosequencer (Roche). Data from each pooled sample were “deconvoluted” by sorting the sequences into bins based on the barcodes using custom PERL scripts. Thus, we were able to normalize each sample by the total number of reads from each barcode. We have noted that ligating tagged primers to PCR amplicons distorts the abundances of the communities and thus it is critical to incorporate the tags during the original amplification step (12). Several groups have employed various barcoding strategies to analyze multiple samples and this strategy is now well accepted (38).
RDP10 Analysis: We identified the taxa present in each sample using the Bayesian analysis tool in Version 10 of the Ribosomal Database Project (RDP10). The abundances of the bacterial identifications were then normalized using a custom PERL script and taxa present at >1% of the community were tabulated. We chose this cutoff because of our a priori assumption that taxa present in <1% of the community vary between individuals and have minimal contribution to the functionality of that community and 2,000 reads per sample will only reliably identify community components that are greater than 1% in abundance (13).
The cirrhosis group was divided into those with and without HE and were compared. Data from the significant variables between HE and non-HE groups were combined in a MANOVA model. Within HE patients, comparison was made between those on lactulose alone to those with lactulose and rifaximin. Microbiome abundance comparisons between groups were made at a family level using non-parametric tests. […]

OC[C@H]1O[C@@H](O[C@@H]2[C@@H](CO)OC(O)(CO)[C@H]2O)[C@H](O)[C@@H](O)[C@H]1O (mixture of isomers) [lactulose]
ICT targets ([1]; high = good cognition): 90.6 ± 8.64%
block design ([1]; high = good cognition): 24.9 ± 24.8 score
digit symbol ([1]; high = good cognition): 36.5 ± 14.0 score
ICT lures ([1]; high = poor cognition): 17.4 ± 10.8 number
Line drawing errors ([1]; high = poor cognition): 28.0 ± 18.6 score
Line drawing time ([1]; high = poor cognition): 106.9 ± 54.5 s
number connection-A ([1]; high = poor cognition): 55.2 ± 34.1 s
number connection-B ([1]; high = poor cognition): 189 ± 127 s
serial dotting ([1]; high = poor cognition): 88.7 ± 29.2 s
normalized abundance of Alcaligenaceae (stool microbiome): 12.6±9%
normalized abundance of Bacteroidaceae (stool microbiome): 39±35%
normalized abundance of Enterobacteriaceae (stool microbiome): 26±40%
normalized abundance of Lactobacillaceae (stool microbiome): 2±1%
normalized abundance of Porphyromonadaceae (stool microbiome): 14±21%
normalized abundance of Prevotellaceae (stool microbiome): 18±25%
normalized abundance of Ruminococcaceae (stool microbiome): 17±22%
normalized abundance of Streptococcaceae (stool microbiome): 4±10
normalized abundance of Veillonellaceae (stool microbiome): 15±13%
